Measured values from PubChem BioAssay AID248 (DTP/NCI, 2004).
Values joined by “and” are separate entries in the source; they are usually repeats but may differ in a detail not shown here. Equal values may be shown once. Toxic doses and inconclusive results are not listed. Rule as the data show it: active = T/C of 150% or more; inactive = T/C below 125%.

System: L1210 leukemia ip in BDF1 mice, survival T/C
Test: NCI In Vivo Anticancer Drug Screen. Data for tumor model L1210 Leukemia (intraperitoneal) in B6D2F1 (BDF1) mice
Details: endpoint: mean survival time, higher = longer survival
Procedure, shortened: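 In this screen, tumor-bearing mice given compound are compared to those given vehicle, and their survival values are reported as a treated-to-control quotient.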

[1] = dose: 100.0 mg/kg/injection, schedule: Q01DX009 (ip), vehicle: Klucel (hydroxypropylcellulose) (HPC)
[2] = dose: 200.0 mg/kg/injection, schedule: Q01DX009 (ip), vehicle: Klucel (hydroxypropylcellulose) (HPC)
[3] = dose: 400.0 mg/kg/injection, schedule: Q01DX009 (ip), vehicle: Klucel (hydroxypropylcellulose) (HPC)
[4] = dose: 100.0 mg/kg/injection, schedule: Q01DX001 (ip), vehicle: saline with Tween-80
[5] = dose: 100.0 mg/kg/injection, schedule: Q01DX009 (ip), vehicle: saline with Tween-80
[6] = dose: 100.0 mg/kg/injection, schedule: Q04DX003 (ip), vehicle: saline with Tween-80
[7] = dose: 200.0 mg/kg/injection, schedule: Q01DX001 (ip), vehicle: saline with Tween-80
[8] = dose: 200.0 mg/kg/injection, schedule: Q01DX009 (ip), vehicle: saline with Tween-80
[9] = dose: 200.0 mg/kg/injection, schedule: Q04DX003 (ip), vehicle: saline with Tween-80
[10] = dose: 400.0 mg/kg/injection, schedule: Q01DX001 (ip), vehicle: saline with Tween-80
[11] = dose: 400.0 mg/kg/injection, schedule: Q01DX009 (ip), vehicle: saline with Tween-80
[12] = dose: 400.0 mg/kg/injection, schedule: Q04DX003 (ip), vehicle: saline with Tween-80
[13] = dose: 100.0 mg/kg/injection, schedule: Q04DX003 (ip), vehicle: Klucel (hydroxypropylcellulose) (HPC)
[14] = dose: 200.0 mg/kg/injection, schedule: Q04DX003 (ip), vehicle: Klucel (hydroxypropylcellulose) (HPC)
[15] = dose: 100.0 mg/kg/injection, schedule: Q01DX001 (ip), vehicle: saline
[16] = dose: 200.0 mg/kg/injection, schedule: Q01DX001 (ip), vehicle: saline
[17] = dose: 400.0 mg/kg/injection, schedule: Q01DX001 (ip), vehicle: saline

Measured: T/C

COc1cc(Cl)ccc1NC(=O)Oc1ccc(-c2ccccc2)cc1
inactive: [1] 116 % of control | [2] 94 % of control | [3] 92 % of control

O=C(Nc1ccccc1[N+](=O)[O-])OCCOc1ccccc1
inactive: [4] 98 % of control | [5] 103 % of control and 90 % of control | dose: 100.0 mg/kg/injection, schedule: Q04DX002 (ip), vehicle: saline with Tween-80 93 % of control and 95 % of control | [6] 97 % of control | [7] 91 % of control | [8] 100 % of control and 92 % of control | dose: 200.0 mg/kg/injection, schedule: Q04DX002 (ip), vehicle: saline with Tween-80 98 % of control and 100 % of control | [9] 103 % of control | [10] 93 % of control | [11] 93 % of control and 90 % of control | dose: 400.0 mg/kg/injection, schedule: Q04DX002 (ip), vehicle: saline with Tween-80 104 % of control and 92 % of control | [12] 105 % of control

CC(=O)OC(CC[P+](c1ccccc1)(c1ccccc1)c1ccccc1)(C(=O)c1ccccc1)c1ccccc1 (stereo unspecified)
inactive: [4] 95 % of control

COc1ccc(/C=N\NC(=O)c2ccccc2)cc1
inactive: [6] 102 % of control | [9] 103 % of control | [12] 92 % of control

CCCCCC[n+]1cccc(C(N)=O)c1
inactive: [13] 100 % of control | [14] 94 % of control

O=C(Nc1ccc(Cl)c(Cl)c1)OCCN1CCOCC1
inactive: [1] 92 % of control | [2] 94 % of control | [3] 92 % of control

NO
inactive: dose: 62.5 mg/kg/injection, schedule: Q01DX Z (oral), vehicle: saline 102 % of control | dose: 125.0 mg/kg/injection, schedule: Q01DX Z (oral), vehicle: saline 104 % of control | dose: 250.0 mg/kg/injection, schedule: Q01DX Z (oral), vehicle: saline 114 % of control

Nc1nc(N)c(N=Nc2ccccc2)c(=O)[nH]1
inactive: dose: 50.0 mg/kg/injection, schedule: Q01DX001 (ip), vehicle: carboxymethylcellulose (CMC) 88 % of control | dose: 50.0 mg/kg/injection, schedule: Q04DX003 (ip), vehicle: carboxymethylcellulose (CMC) 94 % of control | dose: 100.0 mg/kg/injection, schedule: Q01DX001 (ip), vehicle: carboxymethylcellulose (CMC) 90 % of control | dose: 100.0 mg/kg/injection, schedule: Q04DX003 (ip), vehicle: carboxymethylcellulose (CMC) 93 % of control | dose: 200.0 mg/kg/injection, schedule: Q01DX001 (ip), vehicle: carboxymethylcellulose (CMC) 93 % of control | dose: 200.0 mg/kg/injection, schedule: Q04DX003 (ip), vehicle: carboxymethylcellulose (CMC) 94 % of control

OCC1SC(n2cnc3c(=S)nc[nH]c32)C(O)C1O (stereo unspecified)
inactive: dose: 200.0 mg/kg/injection, schedule: Q01DX005 (ip), vehicle: saline 103 % of control

CC(C)(C)C1CC=CCC1 (stereo unspecified)
inactive: dose: 50.0 mg/kg/injection, schedule: Q01DX009 (ip), vehicle: saline sonified 96 % of control | dose: 100.0 mg/kg/injection, schedule: Q01DX009 (ip), vehicle: saline sonified 102 % of control | dose: 200.0 mg/kg/injection, schedule: Q01DX009 (ip), vehicle: saline sonified 100 % of control

CC1=Nc2ccccc2/C1=C\c1c(C)[nH]c2ccccc12
inactive: dose: 25.0 mg/kg/injection, schedule: Q01DX009 (ip), vehicle: Klucel (hydroxypropylcellulose) (HPC) 97 % of control | dose: 50.0 mg/kg/injection, schedule: Q01DX009 (ip), vehicle: Klucel (hydroxypropylcellulose) (HPC) 97 % of control | dose: 50.0 mg/kg/injection, schedule: Q01DX009 (ip), vehicle: acetone 101 % of control | [15] 96 % of control | [1] 97 % of control | dose: 100.0 mg/kg/injection, schedule: Q04DX003 (ip), vehicle: acetone 96 % of control | [16] 101 % of control | [2] 97 % of control | dose: 200.0 mg/kg/injection, schedule: Q04DX003 (ip), vehicle: acetone 99 % of control | [17] 104 % of control

CCC1(O)C2CCCC1CCC2 (stereo unspecified)
inactive: [5] 97 % of control | [13] 97 % of control | [8] 94 % of control | [14] 92 % of control | [11] 97 % of control | dose: 400.0 mg/kg/injection, schedule: Q04DX003 (ip), vehicle: Klucel (hydroxypropylcellulose) (HPC) 97 % of control

CCCCCCCCCCCCCCC[As](=O)(O)CCCCCCCCCCCCCCC
inactive: dose: 50.0 mg/kg/injection, schedule: Q01DX001 (ip), vehicle: saline 97 % of control | [15] 95 % of control | [16] 95 % of control | [17] 95 % of control

C[N+](C)(C)C12CCC(CC1)C1([N+](C)(C)C)CCC2CC1
inactive: dose: 100.0 mg/kg/injection, schedule: Q04DX002 (ip), vehicle: Klucel (hydroxypropylcellulose) (HPC) 109 % of control | dose: 200.0 mg/kg/injection, schedule: Q04DX002 (ip), vehicle: Klucel (hydroxypropylcellulose) (HPC) 113 % of control | dose: 400.0 mg/kg/injection, schedule: Q04DX002 (ip), vehicle: Klucel (hydroxypropylcellulose) (HPC) 117 % of control

O=S(=O)(Nc1ccc2ccccc2c1)c1ccccc1
inactive: [4] 103 % of control | [7] 97 % of control | [10] 97 % of control

CCOC(=O)C1=C(C(=O)OCC)C2(c3ccccc3)NC1(c1ccccc1)c1ccccc12
inactive: [15] 101 % of control | [16] 97 % of control | [17] 97 % of control

N#CCCNC=O
inactive: dose: 100.0 mg/kg/injection, schedule: Q04DX002 (ip), vehicle: saline 109 % of control | dose: 200.0 mg/kg/injection, schedule: Q04DX002 (ip), vehicle: saline 98 % of control | dose: 400.0 mg/kg/injection, schedule: Q04DX002 (ip), vehicle: saline 109 % of control

CC(=O)Nc1nnc(Sc2n[nH]c(=O)[nH]c2=O)s1
inactive: dose: 10.0 mg/kg/injection, schedule: Q01DX001 (ip), vehicle: saline 98 % of control

NC(CCC(=O)NC1(C(=O)O)C2CC3CC(C2)CC1C3)C(=O)O (stereo unspecified)
inactive: [1] 87 % of control | [2] 103 % of control | [3] 89 % of control

CN1CCC(OC(=O)C(C)(O)C#Cc2ccccc2)CC1 (stereo unspecified)
inactive: dose: 50.0 mg/kg/injection, schedule: Q01DX001 (ip), vehicle: Klucel (hydroxypropylcellulose) (HPC) 102 % of control | dose: 100.0 mg/kg/injection, schedule: Q01DX001 (ip), vehicle: Klucel (hydroxypropylcellulose) (HPC) 97 % of control | dose: 200.0 mg/kg/injection, schedule: Q01DX001 (ip), vehicle: Klucel (hydroxypropylcellulose) (HPC) 100 % of control
